Laboratory results as given in PMC9939733 (The Journal of Biological Chemistry, 2023).
Residue numbers refer to the chain shown, from its start. pIC50: −log10 of the molar value.

How the values were obtained:
R140Q IDH2 [1] = target: T1, R140Q IDH2 (Homo sapiens, UniProt P48735, R140Q); test: Absorbance assay, variant activity in the presence of equimolar 2OG (inhibition screen); type: biochemical; conditions: 6.0 mM 2OG and 6.0 mM test compound, 0.03 μM R140Q IDH2, 50 μM NADPH
T1 construct: made in house; host or cells: Sf21 insect cells (cell pellets prepared at Evotec)
T1 sequence (P48735 40-452 R140Q): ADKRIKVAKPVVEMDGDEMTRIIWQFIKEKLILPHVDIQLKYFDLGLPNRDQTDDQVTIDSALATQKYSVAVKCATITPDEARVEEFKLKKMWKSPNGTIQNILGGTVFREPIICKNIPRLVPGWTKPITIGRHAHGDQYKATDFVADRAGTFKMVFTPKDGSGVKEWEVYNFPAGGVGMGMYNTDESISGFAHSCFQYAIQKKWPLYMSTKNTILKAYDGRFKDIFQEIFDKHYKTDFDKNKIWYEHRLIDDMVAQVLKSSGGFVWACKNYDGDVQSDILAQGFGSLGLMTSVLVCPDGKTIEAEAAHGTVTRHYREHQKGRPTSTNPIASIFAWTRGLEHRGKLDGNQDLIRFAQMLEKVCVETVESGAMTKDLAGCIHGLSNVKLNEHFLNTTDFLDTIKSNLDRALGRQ
Outline: (§1)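 Values come from four technical replicates per reaction; compound transfer used a simultaneous pipettor and reagent dispensing triggered the start.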

R172K IDH2 [2] = target: T2, R172K IDH2 (Homo sapiens, UniProt P48735, R172K); test: as above; type: biochemical; conditions: 1.0 mM 2OG and 1.0 mM test compound, 0.03 μM R172K IDH2, 50 μM NADPH
T2 construct: made in house; host or cells: Sf21 insect cells (cell pellets prepared at Evotec)
T2 sequence (P48735 40-452 R172K): T1 sequence (P48735 40-452 R140Q) with Q101R, R133K
Outline: as §1

R140Q IDH2 [3] = target: T1, R140Q IDH2; test: Absorbance assay, IC50 determination; type: biochemical; conditions: 6.0 mM 2OG, 0.03 μM enzyme, 50 μM NADPH
Description: (§2) The reactivity of WT IDH1/2 and oncogenic IDH1/2 variants was assayed at ambient temperature by continuously monitoring the concentration-dependent change in absorbance ([…]) of NADPH using a PheraStar FS or a CLARIOstar Plus plate reader (BMG Labtech). Enzyme reactions (60 μL total reaction volume) were performed in clear 384-well UV-STAR plates (Greiner Bio-one, #781801). Compounds were dispensed using a CyBio SDW-CW CyBi-Well Simultaneous Pipettor and assay started using a ThermoFisher Multidrop Combi reagent dispenser.
(§3) Final assay concentrations were as follows: 30 nM IDH1/2 variant and 50 μM NADPH. […] Reactions were performed as technical quadruplicates, and all assays were carried out in two independent duplicates. GraphPad Prism (version 5.04) was used for data analysis and to determine the IC50 values.

R172K IDH2 [4] = target: T2, R172K IDH2; test: Absorbance assay, IC50 determination; type: biochemical; conditions: 1.0 mM 2OG, 0.03 μM enzyme, 50 μM NADPH
Description: as §2, §3

WT IDH1 [5] = target: T3, WT IDH1 (Homo sapiens, UniProt O75874); test: Absorbance assay, WT activity in the presence of equimolar DL-isocitrate (inhibition); type: biochemical; conditions: […] isocitrate and […] test compound, 75 μM NADP+, 2.0 nM WT IDH1
T3 construct: made in house; host or cells: Escherichia coli BL21(DE3) pLyS
T3 sequence (O75874 whole entry): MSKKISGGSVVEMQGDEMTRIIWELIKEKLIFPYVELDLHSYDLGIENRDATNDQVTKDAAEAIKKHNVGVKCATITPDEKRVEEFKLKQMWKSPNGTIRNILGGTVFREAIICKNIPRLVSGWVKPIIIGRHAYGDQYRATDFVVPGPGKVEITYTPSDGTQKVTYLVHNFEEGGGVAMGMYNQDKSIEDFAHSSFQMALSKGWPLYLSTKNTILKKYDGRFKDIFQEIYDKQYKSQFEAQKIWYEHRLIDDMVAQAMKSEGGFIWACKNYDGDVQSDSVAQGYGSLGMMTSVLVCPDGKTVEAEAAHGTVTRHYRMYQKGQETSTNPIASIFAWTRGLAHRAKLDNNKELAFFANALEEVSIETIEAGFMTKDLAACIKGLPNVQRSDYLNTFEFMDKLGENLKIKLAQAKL
Outline: as §1

WT IDH2 [6] = target: T4, WT IDH2 (Homo sapiens, UniProt P48735); test: as above; type: biochemical; conditions: […] isocitrate and […] test compound, 75 μM NADP+, 2.0 nM WT IDH2
T4 construct: made in house; host or cells: Sf21 insect cells (cell pellets prepared at Evotec)
T4 sequence (P48735 40-452): T1 sequence (P48735 40-452 R140Q) with Q101R
Outline: as §1

WT IDH1 [7] = target: T3, WT IDH1; test: Absorbance assay, substrate activity in the absence of DL-isocitrate; type: biochemical; conditions: no DL-isocitrate; […] test compound, 75 μM NADP+, 2.0 nM WT IDH1; compared to DL-isocitrate
Outline: as §1

WT IDH2 [8] = target: T4, WT IDH2; test: as above; type: biochemical; conditions: no DL-isocitrate; […] test compound, 75 μM NADP+, 2.0 nM WT IDH2; compared to DL-isocitrate
Outline: as §1

FIH = conditions: ref [22], [23]; cited from earlier work
R132H IDH1 [9] = target: T5, R132H IDH1 (Homo sapiens, UniProt O75874, R132H); test: Absorbance assay, variant activity in the presence of equimolar 2OG (inhibition screen); type: biochemical; parameters: made in house; host or cells: Escherichia coli BL21(DE3) pLyS; conditions: […] 2OG and […] test compound, 0.03 μM R132H IDH1, 50 μM NADPH
T5 sequence (O75874 whole entry R132H): as the sequence (O75874 whole entry) above, with R132H counted along it
Outline: as §1

R132H IDH1 [10] = target: T5, R132H IDH1; test: Absorbance assay, IC50 determination; type: biochemical; parameters: made in house; host or cells: Escherichia coli BL21(DE3) pLyS; conditions: […] 2OG, 0.03 μM enzyme, 50 μM NADPH
Description: as §2, §3

AspH = conditions: ref [22], [23]; cited from earlier work
[11] = tested on: glutamic oxaloacetic aminotransferase; parameters: method as in earlier work; conditions: ref [66]; cited from earlier work

In the case of `CC1(C)c2ccccc2-c2ccc(CC(CC(=O)O)C(=O)C(=O)O)cc21` (racemic) [compound 11], the “activity [%] (%-substrate conversion after 20 min incubation)” value (shortened to “activity [%]”) (R140Q IDH2 [1]) was < 10%, the “activity [%]” value (R172K IDH2 [2]) was < 10% and the pIC50 (R140Q IDH2 [3]) was ~2.78. The pIC50 (R172K IDH2 [4]) was ~4.08, the “activity [%]” value (WT IDH1 [5]) was 98±2% and the “activity [%]” value (WT IDH2 [6]) was 96±2%. The “activity [%]” value (WT IDH1 [7]) was < 10%, the “activity [%]” value (WT IDH2 [8]) was < 10% and the “inhibition of FIH” value (FIH) was “potent inhibitor”. The “activity [%]” value (R132H IDH1 [9]) was < 10% and the pIC50 (R132H IDH1 [10]) was ~2.96.
For `CC(C)(CC(=O)C(=O)O)C(=O)O` [compound 13, 4,4-dimethyl-2OG], the “activity [%]” value (R140Q IDH2 [1]) was 117 ± 6%, the “activity [%]” value (R172K IDH2 [2]) was 106 ± 6% and the “activity [%]” value (WT IDH1 [5]) was 106±4%. The “activity [%]” value (WT IDH2 [6]) was 101±7%, the “activity [%]” value (WT IDH1 [7]) was < 10% and the “activity [%]” value (WT IDH2 [8]) was < 10%. The “inhibition of FIH” value (FIH) was “does not inhibit”, the “inhibition of AspH” value (AspH) was “efficient inhibitor” and the “substrate efficiency compared with 2OG” value [11] was “less efficient substrate”. For the same molecule, the “activity [%]” value (R132H IDH1 [9]) was 118 ± 20%.
